Results from US8350027B2, “Dual-acting pyrazole antihypertensive agents” (Theravance, Inc., priority 2009, dated 2013).

Columns and labels:
human AT1 receptor = biological target: T1, human AT1 receptor (Homo sapiens, UniProt P30556); experiment: AT1 radioligand binding assay (displacement of [Eu]AngII); conditions: membranes of CHO-K1 cells expressing cloned human AT1 receptor; values given as lower bounds; read-out: AT1 pKi (converted)
T1 construct: expressed in transfected cells; host or cells: CHO-K1
T1 sequence (P30556 1-359): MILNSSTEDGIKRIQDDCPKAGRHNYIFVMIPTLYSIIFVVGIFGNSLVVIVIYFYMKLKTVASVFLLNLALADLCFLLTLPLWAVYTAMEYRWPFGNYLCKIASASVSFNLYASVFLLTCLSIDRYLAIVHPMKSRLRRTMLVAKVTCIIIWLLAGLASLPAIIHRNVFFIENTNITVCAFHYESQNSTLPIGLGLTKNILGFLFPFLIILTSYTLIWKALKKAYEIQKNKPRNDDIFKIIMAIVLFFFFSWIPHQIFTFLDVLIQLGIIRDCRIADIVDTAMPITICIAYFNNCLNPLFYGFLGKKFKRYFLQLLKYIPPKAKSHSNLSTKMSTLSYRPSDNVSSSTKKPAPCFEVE
Description: A. AT1 and AT2 Radioligand Binding Assays
These in vitro assays were used to assess the ability of test compounds to bind to the AT1 and the AT2 receptors.
Membrane Preparation from Cells Expressing Human AT1 or AT2 Receptors
Chinese hamster ovary (CHO-K1) derived cell lines stably expressing the cloned human AT1 or AT2 receptors, respectively, were grown in HAM's-F12 medium supplemented with 10% fetal bovine serum, 10 μg/ml penicillin/streptomycin, and 500 μg/ml geneticin in a 5% CO2 humidified incubator at 37° C. AT2 receptor expressing cells were grown in the additional presence of 100 nM PD123,319 (AT2 antagonist). When cultures reached 80-95% confluence, the cells were washed thoroughly in PBS and lifted with 5 mM EDTA. Cells were pelleted by centrifugation and snap frozen in MeOH-dry ice and stored at −80° C. until further use.
For membrane preparation, cell pellets were resuspended in lysis buffer (25 mM Tris/HCl pH 7.5 at 4° C., 1 mM EDTA, and one tablet of Complete Protease Inhibitor Cocktail Tablets with 2 mM EDTA per 50 mL buffer (Roche cat.#1697498, Roche Molecular Biochemicals, Indianapolis, Ind.)) and homogenized using a tight-fitting Dounce glass homogenizer (10 strokes) on ice. The homogenate was centrifuged at 1000×g, the supernatant was collected and centrifuged at 20,000×g. The final pellet was resuspended in membrane buffer (75 mM Tris/HCl pH 7.5, 12.5 mM MgCl2, 0.3 mM EDTA, 1 mM EGTA, 250 mM sucrose at 4° C.) and homogenized by extrusion through a 20G gauge needle. Protein concentration of the membrane suspension was determined by the method described in Bradford (1976) Anal Biochem. 72:248-54. Membranes were snap frozen in MeOH-dry ice and stored at −80° C. until further use.
Ligand Binding Assay to Determine Compound Affinities for the Human AT1 and AT2 Angiotensin Receptors
Binding assays were performed in 96-well Acrowell filter plates (Pall Inc., cat.#5020) in a total assay volume of 100 μL with 0.2 μg membrane protein for membranes containing the human AT1 receptor, or 2 μg membrane protein for membranes containing the human AT2 receptor in assay buffer (50 mM Tris/HCl pH 7.5 at 20° C., 5 mM MgCl2, 25 μM EDTA, 0.025% BSA). Saturation binding studies for determination of Kd values of the ligand were done using N-terminally Europium-labeled angiotensin-II ([Eu]AngII, H-(Eu-N^1)-Ahx-Asp-Arg-Val-Tyr-Ile-His-Pro-Phe-OH; PerkinElmer, Boston, Mass.) at 8 different concentrations ranging from 0.1 nM to 30 nM. […] Drugs were dissolved to a concentration of 1 mM in DMSO and from there serially diluted into assay buffer. Non-specific binding was determined in the presence of 10 μM unlabeled angiotensin-II. Assays were incubated for 120 minutes in the dark, at room temperature or 37° C., and binding reactions were terminated by rapid filtration through the Acrowell filter plates followed by three washes with 200 μL ice cold wash buffer (50 mM Tris/HCl pH 7.5 at 4° C., 5 mM MgCl2) using a Waters filtration manifold. Plates were tapped dry and incubated with 50 μl DELFIA Enhancement Solution (PerkinElmer cat.#4001-0010) at room temperature for 5 minutes on a shaker. Filter-bound [Eu]AngII was quantitated immediately on a Fusion plate reader (PerkinElmer) using Time Resolved Fluorescence (TRF). Binding data were analyzed by nonlinear regression analysis with the GraphPad Prism Software package (GraphPad Software, Inc., San Diego, Calif.) using the 3-parameter model for one-site competition. The BOTTOM (curve minimum) was fixed to the value for nonspecific binding, as determined in the presence of 10 μM angiotensin II. Ki values for drugs were calculated from observed IC50 values and the Kd value of [Eu]AngII according to the Cheng-Prusoff equation described in Cheng et al. (1973) Biochem Pharmacol. 22 (23):3099-108. Selectivities of test compounds for the AT1 receptor over the AT2 receptor were calculated as the ratio of AT2Ki/AT1Ki. […]

NEP enzyme = biological target: T2, NEP enzyme (Homo sapiens, UniProt P08473); experiment: NEP enzyme inhibition assay (fluorogenic peptide substrate); format: biochemical; conditions: values given as lower bounds; * = prodrugs, may not exhibit NEP activity in an in vitro assay; read-out: NEP pIC50 (converted)
T2 construct: purchased R&D Systems, Minneapolis, Minn; 1182-ZN
T2 sequence (P08473 52-750 limits assumed): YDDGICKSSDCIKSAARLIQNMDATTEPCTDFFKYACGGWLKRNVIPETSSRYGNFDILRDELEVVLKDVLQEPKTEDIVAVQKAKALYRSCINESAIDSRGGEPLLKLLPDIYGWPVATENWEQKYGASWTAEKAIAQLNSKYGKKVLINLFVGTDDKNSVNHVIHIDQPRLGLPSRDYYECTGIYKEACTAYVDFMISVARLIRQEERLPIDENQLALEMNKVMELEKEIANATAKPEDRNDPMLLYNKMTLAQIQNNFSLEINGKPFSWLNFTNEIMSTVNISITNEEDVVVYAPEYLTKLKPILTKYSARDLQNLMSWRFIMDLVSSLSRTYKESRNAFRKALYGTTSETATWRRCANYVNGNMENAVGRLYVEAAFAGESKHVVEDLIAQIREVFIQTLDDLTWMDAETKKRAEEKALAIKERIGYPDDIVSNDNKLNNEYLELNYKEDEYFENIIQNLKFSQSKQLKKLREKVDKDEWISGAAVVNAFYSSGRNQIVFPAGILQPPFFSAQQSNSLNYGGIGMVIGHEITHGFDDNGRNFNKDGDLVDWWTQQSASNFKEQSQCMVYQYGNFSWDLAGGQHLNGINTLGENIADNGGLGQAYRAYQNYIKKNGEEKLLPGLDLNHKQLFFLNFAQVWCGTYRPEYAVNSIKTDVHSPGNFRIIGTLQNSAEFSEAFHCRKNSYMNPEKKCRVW
Description: B. In Vitro Assays for the Quantitation of Inhibitor Potencies (IC50) at Human and Rat NEP, and Human ACE
The inhibitory activities of compounds at human and rat NEP and human ACE were determined using in vitro assays as described below.
Recombinant human NEP and recombinant human ACE were obtained commercially (R&D Systems, Minneapolis, Minn., catalog numbers 1182-ZN and 929-ZN, respectively). The fluorogenic peptide substrate Mca-BK2 (Mca-Arg-Pro-Pro-Gly-Phe-Ser-Ala-Phe-Lys(Dnp)-OH; Johnson et al. (2000) Anal. Biochem. 286: 112-118) was used for the human NEP and ACE assays, and Mca-RRL (Mca-DArg-Arg-Leu-(Dnp)-OH; Medeiros et al. (1997) Braz. J. Med. Biol. Res. 30:1157-1162) was used for the rat NEP assay (both from Anaspec, San Jose, Calif.).
The assays were performed in 384-well white opaque plates at room temperature using the respective fluorogenic peptides at a concentration of 10 μM in assay buffer (50 mM Tris/HCl at 25° C., 100 mM NaCl, 0.01% Tween-20, 1 μM Zn, 0.025% BSA). […] The rat NEP enzyme preparation was used at a concentration that yielded quantitative proteolysis of 3 μM of Mca-RRL within 20 minutes at room temperature.
Test compounds were diluted to 12 concentrations from 10 μM to 20 pM in Assay Buffer. Assays were started by adding 25 μL of enzyme to 12.5 μL of test compound at each of the 12 concentrations. Test compounds were allowed to equilibrate with the enzyme for 10 minutes before 12.5 μL of the fluorogenic substrates were added to initiate the reaction. Reactions were terminated by the addition of 10 μL of 3.6% glacial acetic acid after 20 minutes of incubation.
For sulfhydryl-containing test compounds, the test compounds may be diluted in Assay Buffer containing a 400 μM concentration of tris(2-carboxyethyl)phosphine hydrochloride (Thermo Scientific, Rockford, Ill.) (TCEP). The test compounds are then incubated for 40 minutes at room temperature (to allow for dimer cleavage) before adding the enzyme. Test compounds are then allowed to equilibrate with the enzyme for 20 minutes before adding the fluorogenic substrates. Reactions are terminated as above.
Plates were read on a fluorometer with excitation and emission wavelengths set to 320 nm and 405 nm, respectively. Raw data (relative fluorescence units) were normalized to % activity from the average high readings (no inhibition, 100% enzyme activity) and average low readings (full inhibition, highest inhibitor concentration, 0% enzyme activity) using three standard NEP and ACE inhibitors, respectively. Nonlinear regression of the normalized data was performed using a one site competition model (GraphPad Software, Inc., San Diego, Calif.). Data were reported as pIC50 values.

Row | Compound | Ki (human AT1 receptor) [nM] | IC50 (NEP enzyme) [nM]
1 | CCOc1cc(C(=O)N[C@@H](CS)Cc2ccccc2)nn1Cc1ccc(-c2ccccc2-c2nnn[nH]2)cc1 [Example 3-4, 5-Ethoxy-1-[2′-(1H-tetrazol-5-yl)biphenyl-4-ylmethyl]-1H-pyrazole-3-carboxylic acid ((R)-1-benzyl-2-mercaptoethyl)amide] | ≤ 10 | ≤ 100
2 | CCCc1cc(C(=O)N[C@H](Cc2ccccc2)[C@@H](O)C(=O)OC)nn1Cc1ccc(-c2ccccc2-c2nnn[nH]2)cc1 [Example 3-12, (2R,3R)-2-Hydroxy-4-phenyl-3-({5-propyl-1-[2′-(1H-tetrazol-5-yl)-biphenyl-4-ylmethyl]-1H-pyrazole-3-carbonyl}amino)butyric acid methyl ester] | ≤ 10 | ≤ 10000
3 | CCCc1cc(C(=O)N[C@H](Cc2ccccc2)[C@@H](O)C(=O)O)nn1Cc1c(F)cc(-c2ccccc2-c2nnn[nH]2)cc1F [Example 3-26, (2R,3R)-3-(1-((3,5-difluoro-2′-(1H-tetrazol-5-yl)biphenyl-4-yl)methyl)-5-propyl-1H-pyrazole-3-carboxamido)-2-hydroxy-4-phenylbutanoic acid] | ≤ 100 | ≤ 100
4 | CCCc1cc(C(=O)N[C@H](CC(C)C)CN(O)C=O)nn1Cc1ccc(-c2ccccc2-c2nnn[nH]2)cc1 [Example 3-25, 5-Propyl-1-[2′-(1H-tetrazol-5-yl)-biphenyl-4-ylmethyl]-1H-pyrazole-3-carboxylic acid {(R)-1-[(formylhydroxyamino)methyl]-3-methylbutyl}amide] | ≤ 10 | ≤ 100
5 | CCCc1cc(C(=O)N[C@@H](CC(=O)O)Cc2ccccc2F)nn1Cc1ccc(-c2ccccc2-c2nnn[nH]2)cc1 [Example 3-33, (R)-4-(2-Fluorophenyl)-3-({5-propyl-1-[2′-(1H-tetrazol-5-yl)biphenyl-4-ylmethyl]-1H-pyrazole-3-carbonyl}amino)butyric acid] | ≤ 10 | ≤ 10000

Other lines, results leading:

Row | Ki (human AT1 receptor) [nM] | IC50 (NEP enzyme) [nM] | Compound
6 | ≤ 10 | ≤ 100 | CCCc1cc(C(=O)N[C@@H](CS)Cc2ccccc2)nn1Cc1ccc(-c2ccccc2S(=O)(=O)NC(C)=O)c(F)c1 [Example 6-6, 1-(2′-Acetylsulfamoyl-2-fluorobiphenyl-4-ylmethyl)-5-propyl-1H-pyrazole-3-carboxylic acid ((R)-1-benzyl-2-mercaptoethyl)amide]
7 | ≤ 10 | ≤ 100 | CCOc1cc(C(=O)N[C@@H](CS)Cc2ccccc2)nn1Cc1ccc(-c2ccccc2S(=O)(=O)NC(C)=O)cc1 [Example 6-2, 1-(2′-Acetylsulfamoyl-biphenyl-4-ylmethyl)-5-ethoxy-1H-pyrazole-3-carboxylic acid ((R)-1-benzyl-2-mercaptoethyl)amide]
8 | ≤ 100 | ≤ 100 | CCCc1cc(C(=O)N[C@H](Cc2ccccc2)[C@@H](O)C(=O)O)nn1Cc1ccc(-c2ccccc2C(=O)O)cc1 [Example 9-5, 4′-[3-((1R,2R)-1-Benzyl-2-carboxy-2-hydroxyethylcarbamoyl)-5-propylpyrazol-1-ylmethyl]biphenyl-2-carboxylic acid]
9 | ≤ 10 | ≤ 1000 | CCCc1cc(C(=O)N[C@H](CC(C)C)[C@@H](O)C(=O)O)nn1Cc1ccc(-c2ccccc2-c2nnn[nH]2)nc1 [Example 14-8, (2R,3R)-2-Hydroxy-5-methyl-3-[(5-propyl-1-{6-[2-(1H-tetrazol-5-yl)phenyl]pyridin-3-ylmethyl}-1H-pyrazole-3-carbonyl)amino]hexanoic acid]
10 | ≤ 10 | ≤ 100 | CCCc1cc(C(=O)N[C@@H](CS)Cc2ccccc2)nn1Cc1ccc(-c2ccccc2S(=O)(=O)NC(C)=O)cc1 [Example 6-5, 1-(2′-Acetylsulfamoylbiphenyl-4-ylmethyl)-5-propyl-1H-pyrazole-3-carboxylic acid ((R)-1-benzyl-2-mercaptoethyl)amide]
11 | ≤ 10 | ≤ 100 | CCCc1cc(C(=O)N[C@@H](CC(=O)O)Cc2ccccc2Br)nn1Cc1ccc(-c2ccccc2-c2nnn[nH]2)nc1 [Example 14-4, (R)-4-(2-Bromophenyl)-3-[(5-propyl-1-{6-[2-(1H-tetrazol-5-yl)-phenyl]-pyridin-3-ylmethyl}-1H-pyrazole-3-carbonyl)amino]butyric acid]
12 | ≤ 100 | ≤ 100 | CCCc1cc(C(=O)N[C@@H](CS)CC(C)C)nn1Cc1ccc(-c2ccccc2C(=O)O)cc1F [Example 9-1, 3′-Fluoro-4′-[3-((R)-1-mercaptomethyl-3-methylbutylcarbamoyl)-5-propylpyrazol-1-ylmethyl]biphenyl-2-carboxylic acid]
